± gives the standard deviation of the averaged measurements.
Tests used:
HS-PSS [1] = test: drug sensitivity score (DSS, CellTiter-Glo viability, 72 h) (DSS (dimensionless)); higher = more sensitive; extreme values may be limits of the assay
In short: (§1)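 MPNST cell lines and primary human Schwann cells (750–1000 cells per well) went into 384-well plates preprinted with each compound at five concentrations in 10-fold steps. Plates were incubated 72 h at 37 °C, 5% CO2. Viability was read as CellTiter-Glo ATP luminescence, scaled between vehicle and positive-control wells, with duplicates averaged where present. Percent inhibition is at the top concentration; drug sensitivity score and relative IC50 (censored at top concentration) come from four-parameter logistic fits.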

HS-Sch-2 [2] = test: as above
In short: as §1

[3] = tested on: HSC1 (primary human Schwann cells); test: as above
In short: as §1

[4] = tested on: HSC2 (primary human Schwann cells); test: as above
In short: as §1

S1507-2 [5] = test: as above
In short: as §1

S462 [6] = test: as above
In short: as §1

ST8814 [7] = test: as above
In short: as §1

STS26T [8] = test: as above
In short: as §1

YST-1 [9] = test: as above
In short: as §1

HS-PSS [10] = test: drug sensitivity score (DSS, CellTox-Green cytotoxicity, 72 h) (DSS (dimensionless)); higher = more cytotoxic; extreme values may be limits of the assay
In short: (§2)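 MPNST cell lines and primary human Schwann cells were incubated 72 h at 37 °C in 384-well plates holding five 10-fold compound dilutions. CellTox-Green was added before seeding at a final 1:1000 dilution and reported fluorescence from DNA released by disrupted cells. Signals were scaled to vehicle and positive-control wells, and cultures failing plate quality control were dropped. Drug sensitivity score and relative IC50 come from four-parameter logistic fits, with IC50 censored at the top concentration.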

[11] = tested on: HSC1 (primary human Schwann cells); test: as above
In short: as §2

[12] = tested on: HSC2 (primary human Schwann cells); test: as above
In short: as §2

S1507-2 [13] = test: as above
In short: as §2

ST8814 [14] = test: as above
In short: as §2

STS26T [15] = test: as above
In short: as §2

HS-PSS [16] = test: % inhibition of CellTiter-Glo viability at highest tested concentration (72 h), relative to DMSO and benzethonium chloride controls; higher = more inhibition
In short: as §1

HS-Sch-2 [17] = test: as above
In short: as §1

[18] = tested on: HSC1 (primary human Schwann cells); test: as above
In short: as §1

[19] = tested on: HSC2 (primary human Schwann cells); test: as above
In short: as §1

S1507-2 [20] = test: as above
In short: as §1

S462 [21] = test: as above
In short: as §1

ST8814 [22] = test: as above
In short: as §1

STS26T [23] = test: as above
In short: as §1

YST-1 [24] = test: as above
In short: as §1

Row | SMILES | drug sensitivity score (HS-PSS [1]) | drug sensitivity score (HS-Sch-2 [2]) | drug sensitivity score [3] | drug sensitivity score [4] | drug sensitivity score (S1507-2 [5]) | drug sensitivity score (S462 [6]) | drug sensitivity score (ST8814 [7]) | drug sensitivity score (STS26T [8]) | drug sensitivity score (YST-1 [9]) | drug sensitivity score (HS-PSS [10]) | drug sensitivity score [11] | drug sensitivity score [12] | drug sensitivity score (S1507-2 [13]) | drug sensitivity score (ST8814 [14]) | drug sensitivity score (STS26T [15]) | % inhibition (HS-PSS [16]) [%] | % inhibition (HS-Sch-2 [17]) [%] | % inhibition [18] [%] | % inhibition [19] [%] | % inhibition (S1507-2 [20]) [%] | % inhibition (S462 [21]) [%] | % inhibition (ST8814 [22]) [%] | % inhibition (STS26T [23]) [%] | % inhibition (YST-1 [24]) [%]
1 | COc1ccccc1S(=O)(=O)Nc1ccc2c(c1)CN(C)C(=O)N2 [PFI-1] (max concentration tested 10000 nM) | 2.11 | 5.21 | 3.78 | 4.03 | 6.21 ± 0.6 | 4.68 ± 0.9 | 5.94 | 3.53 | 4.93 | 0 | 0 | 0 | 2.07 ± 1.1 | 1.77 | 0 | 48.1 | 58.4 | 62.2 | 53.7 | 69.2 ± 3.9 | 53.6 ± 4.7 | 63.6 | 39.5 | 56.6
2 | CCNC(=O)CCC/C=C\C[C@@H]1[C@@H](/C=C/[C@@H](O)CCc2ccccc2)[C@H](O)C[C@@H]1O [Bimatoprost] (max concentration tested 5500 nM) | 0.89 | 0.89 | 0 | 0 | 0.00145 ± 0.0021 | 0.502 ± 0.71 | 0 | 0 | 0 | 0.89 | 0 | 0 | 0 | 0 | 0 | -11.6 | -3.66 | 2.26 | 9.6 | 0.42 ± 0.85 | 9.55 ± 12 | 2.33 | 7.31 | 7.41
3 | C[C@]12C=CC(=O)C=C1CC[C@@H]1[C@@H]2[C@@H](O)C[C@@]2(C)[C@H]1CC[C@]2(O)C(=O)CO [Prednisolone] (max concentration tested 10000 nM) | 0 | 0 | 0 | 0 | 0.89 ± 1.3 | 0 | 3.88 | 0 | 0.25 | 0 | 0 | 0 | 0 | 0 | 0 | -16.2 | 6 | 6.78 | -7.75 | 11.2 ± 15 | -0.231 ± 7 | 15.6 | 3.25 | 12
4 | Nc1nc(Cl)nc2c1ncn2[C@@H]1O[C@H](CO)[C@@H](O)[C@@H]1F [Clofarabine] (max concentration tested 10000 nM) | 13 | 18.2 | 14.4 | 17.5 | 11 ± 1.9 | 17.2 ± 2.3 | 12.8 | 15.8 | 14.8 | 6.52 | 15.7 | 15.8 | 3.61 ± 1.3 | 8.58 | 6.47 | 76 | 82.1 | 79.4 | 85.7 | 88.7 ± 1.4 | 103 ± 1.1 | 98.8 | 87.7 | 83.9
5 | Cc1c(N)nc([C@H](CC(N)=O)NC[C@H](N)C(N)=O)nc1C(=O)N[C@H](C(=O)N[C@H](C)[C@@H](O)[C@H](C)C(=O)N[C@H](C(=O)NCCc1nc(-c2nc(C(=O)NCCC[S+](C)C)cs2)cs1)[C@@H](C)O)[C@@H](O[C@@H]1O[C@@H](CO)[C@@H](O)[C@H](O)[C@@H]1O[C@H]1O[C@H](CO)[C@@H](O)[C@H](OC(N)=O)[C@@H]1O)c1c[nH]cn1 [Bleomycin] (max concentration tested 10000 nM) | 5.94 | 8.47 | 6.33 | 8.81 | 2.36 ± 0.43 | 5 ± 1.1 | 4.1 | 5.46 | 10.9 | 0.34 | 0 | 1.66 | 1.29 ± 0.61 | 2.35 | 4.43 | 53.2 | 72.1 | 50.4 | 54.5 | 29.9 ± 7.5 | 68.4 ± 1.7 | 46.4 | 62.1 | 79.5
6 | O=P1(NCCCl)OCCCN1CCCl (stereo not drawn) [Ifosfamide] (max concentration tested 10000 nM) | 0 | 0 | 0 | 0 | 0.228 ± 0.32 | 0 | 0 | 0 | 0.08 | 0 | 0 | 0 | 0 | 0 | 0 | -0.44 | -4.64 | 0.661 | -1.49 | 4.66 ± 16 | 2.94 ± 0.79 | 1.12 | -1.13 | 11.6
7 | CC(C)C[C@H](NC(=O)[C@@H](COC(C)(C)C)NC(=O)[C@H](Cc1ccc(O)cc1)NC(=O)[C@H](CO)NC(=O)[C@H](Cc1c[nH]c2ccccc12)NC(=O)[C@H](Cc1cnc[nH]1)NC(=O)[C@@H]1CCC(=O)N1)C(=O)N[C@@H](CCCNC(=N)N)C(=O)N1CCC[C@H]1C(=O)NNC(N)=O [Goserelin] (max concentration tested 10000 nM) | 0 | 0.06 | 0 | 0 | 0 | 0 | 0 | 0 | 0 | 0 | 0 | 0 | 0.454 ± 0.64 | 0 | 0 | -4.24 | 11.2 | 6.11 | -4.29 | -0.69 ± 5 | 0.735 ± 5 | 4.22 | 7.86 | -0.8
8 | O=C(Nc1c[nH]nc1-c1nc2ccc(CN3CCOCC3)cc2[nH]1)NC1CC1 [AT9283] (max concentration tested 1000 nM) | 3.34 | 4.99 | 10.7 | 10.5 | 10.9 ± 1.9 | 8.755 ± 0.034 | 13 | 5.9 | 6.27 | 0 | 4.98 | 5.2 | 8.28 ± 1.4 | 15.5 | 8.27 | 40.9 | 93.4 | 83.1 | 83 | 95.6 ± 4.4 | 84.48 ± 0.23 | 92.4 | 66.9 | 67.4
9 | COc1nc(N)nc2c1ncn2[C@@H]1O[C@H](CO)[C@@H](O)[C@@H]1O [Nelarabine] (max concentration tested 10000 nM) | 0 | 0 | 0 | 0 | 1.62 ± 2.3 | 0 | 0 | 0 | 0 | 0 | 0 | 0.0142 | 3.71 ± 5.2 | 0 | 0 | -6.14 | 6.44 | 1.53 | 4.25 | 7.84 ± 7.8 | 8.35 ± 0.2 | -1.03 | 6.48 | -10.9
10 | COc1cc2ncnc(Nc3ccc(F)c(Cl)c3)c2cc1NC(=O)/C=C/CN1CCCCC1 [Dacomitinib] (max concentration tested 1000 nM) | 3 | 2.81 | 0.027 | 0.456 | 1.41 ± 1.5 | 0.0398 ± 0.056 | 0.993 | 0.0007 | 0 | 1.85 | 0 | 0 | 1.18 ± 1.6 | 0 | 0 | 35.4 | 32.6 | 12.1 | 19.3 | 24.7 ± 9.1 | 7.49 ± 5.3 | 16.4 | 13.6 | 9.37
11 | CC[C@H](CC#N)OC(=O)N[C@@H](C)c1cccc(NC(=O)Nc2ccc(-c3cnco3)c(OC)c2)c1 [AVN944] (max concentration tested 10000 nM) | 12.5 | 8.71 | 18.7 | 20 | 8.48 ± 0.44 | 14.5 ± 1.5 | 11.4 | 12.2 | 16 | 0 | 0 | 0 | 0 | 7.26 | 0.427 | 69.4 | 60.8 | 71.2 | 76.8 | 54.6 ± 5.9 | 81.8 ± 2.8 | 78.7 | 74.3 | 89.7
12 | CN(N=O)C(=O)N[C@@H]1[C@@H](O)[C@H](O)[C@@H](CO)O[C@@H]1O [Streptozocin] (max concentration tested 10000 nM) | 1.36 | 0.37 | 0 | 0 | 0 | 0 | 0 | 0 | 0.32 | 0 | 0 | 0 | 0.108 ± 0.15 | 0 | 0 | 7.67 | 15.2 | -2.68 | -3.21 | -6.55 ± 6.7 | -6.63 ± 1.8 | 6.38 | -0.477 | 9.13

— the supplement of paper PMC5579334
